Values quoted from earlier work in US20120101089A1, “Anti-Emetic Substance” (priority 2010, published 2012).
Entries after “also recorded” stand apart in the source; their conditions may differ. Where two headings read alike, the source gives them in different places.

Tests used:
[1] = for Adverse Effect: common adverse effects associated with single agents, listed per class; for sedation, droperidol versus ondansetron groups: i.v. ondansetron 4 mg, droperidol 20 μg/kg, outpatient gynaecological laparoscopy
[2] = not given; remark: listed apart in the source
[3] = for prevention of PONV symptoms: i.v. tropisetron 5 mg, droperidol 1.25 mg at the end of gynaecological surgery (Purhonen); for prevention of PONV versus placebo: ephedrine 0.5 mg/kg i.m., propofol […] i.v., laparoscopic surgery; for PONV prevention versus comparators: major gynecological surgery; for PONV prevention versus metoclopramide 10 mg or placebo: granisetron 3 mg, tropisetron 5 mg before start of anesthesia (Naguib)
[4] = not given; remark: listed apart in the source
[5] = for optimal dose for PONV treatment: children older than 2 years, intravenously
[6] = 15 mg and 0.15 mg/kg i.v. immediately after umbilical cord clamped; lidocaine, morphine epidural

SMILES: CCN(CC)C(=O)C1CN2CCc3cc(OC)c(OC)cc3C2CC1OC(C)=O (centres unmarked) [benzquinamide, Benzquinamide]
- Adverse Effect [1]: Sedation, EPS, restlessness,

SMILES: CN(C)CCCN1c2ccccc2Sc2ccc(Cl)cc21 [chlorpromazine]
- Adverse Effect [1]: Sedation, EPS, hypotension,

SMILES: CN1CCN(C(c2ccccc2)c2ccccc2)CC1 [cyclizine, Cyclizine]
- Adverse Effect [1]: Sedation, dry mouth,

SMILES: CS(=O)(=O)O.O=C(OC1C[C@@H]2CC3C[C@H](C1)N2CC3=O)c1c[nH]c2ccccc12 (some centres unmarked) [dolasetron mesylate]
- patients with some emesis control (single-arm study): 65%

SMILES: O=C(O[C@@H]1C[C@@H]2C[C@H]3C[C@H](C1)N2CC3=O)c1c[nH]c2ccccc12 [dolasetron, Dolasetron]
- clearance and half-life in children compared with young healthy adult volunteers ([2]; children): increased clearance and a shorter half-life
- elimination half-life ([2]; parent compound): 9 min

SMILES: O=C(CCCN1CC=C(n2c(=O)[nH]c3ccccc32)CC1)c1ccc(F)cc1 [droperidol]
- duration of action / effect ([2]; following administration, route not stated): ≤ 24 h
- prevention of PONV ([3]; 5 μg/kg i.v. 1 hour before end of anesthesia, children 11 to 15 years): effective in preventing PONV
- best anti-emetic effectiveness among groups ([3]; 1.25 mg dose (Fortney)): best anti-emetic effectiveness
- prevention of PONV versus i.v. droperidol 1.25 mg or ondansetron 4 mg ([3]; i.v. 0.625 mg at start of anesthesia, outpatient gynecological operations): as effective
- PONV prevention, low versus higher dose ([3]; i.v. 0.625 mg immediately following intubation): as effective as intravenous droperidol 1.25 mg
- prevention of PONV versus comparators ([3]; i.v. 1.25 mg before end of general anesthesia, female patients, elective orthopaedic surgery): significantly superior to intravenous metoclopromide 10 mg and a saline placebo
- prevention of PONV versus comparators ([3]; i.v. 1.25 mg immediately before end of anesthesia, day-stay and major gynaecological surgery): superior to intravenous metoclopramide 10 mg, intravenous domperidone 5 mg and an intravenous saline placebo
- patients with no emesis versus i.v. ondansetron 8 mg ([3]; i.v. 2.5 mg, women, inpatient minor gynaecological surgery): more patients
- prevention of PONV symptoms [3]: failed to prevent any PONV symptoms
- anti-emetic effectiveness versus haloperidol ([3]; intramuscular 5 mg): equivalent anti-emetic effectiveness to intramuscular haloperidol 2 mg
- sedation or other adverse effects ([1]; 1.25 mg dose (Fortney)): no increase in sedation or other adverse effects
- Adverse Effect [1]: Sedation, EPS,
- adverse effects (dystonic reactions, EPS, sedation) ([1]; i.v. 0.625 mg and 1.25 mg): few adverse effects
- sedation or other adverse effects ([1]; i.v. 0.625 mg or 1.25 mg, outpatient gynecological operations): no increase in sedation or other adverse effects
- anxiety and drowsiness ([1]; i.v. 1.25 mg at the end of gynaecological surgery (Purhonen)): increase in anxiety and drowsiness
- adverse effects versus studies with dose less than 2.5 mg ([1]; i.v. 2.5 mg): more adverse effects (i.e. sedation, dizziness)
- sedation, droperidol versus ondansetron groups [1]: no difference

SMILES: CN[C@@H](C)[C@H](O)c1ccccc1 [ephedrine]
- prevention of PONV versus placebo [3]: more effective, with no haemodynamic changes, than placebo

SMILES: CN1C2CCCC1CC(NC(=O)c1nn(C)c3ccccc13)C2 (centres unmarked) [granisetron, Granisetron]
- PONV prevention versus comparators ([3]; 40 μg/kg immediately prior to induction, women during menstruation (Fujii)): more effective than droperidol 25 μg/kg or metoclopramide 0.2 mg/kg
- optimal dose for PONV prevention ([3]; adults and children, intravenous, other studies): 0.04 mg/kg
- optimum effective prophylactic dose ([3]; adults, i.v. immediately before the start of anesthesia, 0.1, 1 and 3 mg compared): 1 mg
- PONV prevention versus comparators ([3]; i.v. 2.5 mg immediately prior to anesthesia, history of postoperative emesis and motion sickness): more effective than droperidol 1.25 mg or metoclopramide 10 mg
- PONV prevention versus metoclopramide 10 mg or placebo ([3]; i.v. ondansetron 4 mg): significantly greater anti-emetic effectiveness than metoclopramide or placebo
- Adverse Effect [1]: Headache, dizziness

SMILES: O=C(CCCN1CCC(O)(c2ccc(Cl)cc2)CC1)c1ccc(F)cc1 [haloperidol]
- duration of action ([2]; intramuscular): approximately 12 hours
- onset time / onset of action ([2]; intramuscular): approximately 30 minutes
- effectiveness in PONV ([3]; 7 μg/kg i.v. and 0.5 to 4.0 mg i.m. for prevention, 1 mg i.m. for treatment): effective in PONV, with little sedative effect
- Adverse Effect [1]: Sedation, EPS,

SMILES: O=C(OC1CC2CC3CC(C1)N2CC3O)c1c[nH]c2ccccc12 (centres unmarked) [hydrodolasetron]
- share of the anti-emetic effect ([2]; active metabolite of dolasetron): 87%
- mean half-life ([2]; intravenous form): ~8.3 h
- mean half-life ([2]; oral form): approximately 7.1 hours

SMILES: OCCOCCN1CCN(C(c2ccccc2)c2ccc(Cl)cc2)CC1 (centres unmarked) [hydroxyzine, Hydroxyzine]
- incidence of PONV versus droperidol ([3]; i.m. 100 mg after induction of anesthesia, non-premedicated patients): decrease the incidence of PONV more effectively than intramuscular droperidol 2.5 mg
- Adverse Effect [1]: Sedation, dry mouth,

SMILES: CCN(CC)CCNC(=O)c1cc(Cl)c(N)cc1OC [metoclopramide, Metoclopramide]
- effect on emetic effects of opioids ([4]; additional 10 to 20 mg i.m. at the end of the operation): reduced the emetic effects of pethidine, but had less effect when morphine was given
- effect on pre-anaesthetic emetic effects of pethidine ([4]; preoperative 10 and 20 mg intramuscularly): abolished the pre-anaesthetic emetic effects of pethidine
- Adverse Effect [1]: Sedation, EPS, restlessness,
- treatment of PONV versus comparators ([5]; 10 mg intravenously): as effective as intravenous droperidol 1.25 mg and more effective than intravenous propofol 10 mg
- incidence of nausea and vomiting [6]: effectively reduce the incidence of nausea and vomiting

SMILES: Cc1ncc2n1-c1ccc(Cl)cc1C(c1ccccc1F)=NC2 [midazolam, Midazolam]
- prevention of vomiting after tonsillectomy ([3]; 75 μg/kg i.v. after induction of anesthesia, children): effective for the prevention of vomiting

SMILES: Cc1nccn1CC1CCc2c(c3ccccc3n2C)C1=O (centres unmarked) [ondansetron, Ondansetron]
- optimal effective dose for PONV ([3]; adults, intravenously at the start of anesthesia): 4 mg
- optimal effective dose for PONV ([3]; adults, orally 1 to 2 hours before anesthesia): 8 mg
- optimal dose for PONV prevention ([3]; children older than 2 years, orally): 0.1 mg/kg
- prevention of vomiting versus comparators ([3]; i.v. 0.1 mg/kg, children undergoing adenotonsillectomy): more effective in preventing vomiting than dimenhydrimate 0.5 mg/kg or placebo
- efficacy by timing of administration ([3]; i.v. 4 mg, end of surgery versus before induction of anesthesia): significantly better when administered at the end of surgery
- patients with emesis versus i.v. metoclopramide 10 mg or droperidol 0.625 mg ([3]; i.v. 8 mg prior to anesthesia (Alon and Himmelseher)): fewer
- difference between ondansetron and dexamethasone administered alone ([3]; i.v. ondansetron 4 mg, dexamethasone 8 mg, major gynaecological surgery): No difference
- PONV prevention versus metoclopramide 10 mg or placebo ([3]; i.v. ondansetron 4 mg): significantly greater anti-emetic effectiveness than metoclopramide or placebo
- control of vomiting and nausea during subsequent days of chemotherapy (single agent (Barbounis)): progressive decline
- cases in which effective (single agent, day 1 of chemotherapy administration (Barbounis)): about 76%
- incidence of adverse events after additional dose ([1]; additional 4 mg postoperatively): did not result in an increased incidence of adverse events
- Adverse Effect [1]: Headache, dizziness
- sedation, droperidol versus ondansetron groups [1]: no difference
- optimal dose for PONV treatment ([5]; <40 kg): 0.1 mg/kg
- optimal dose for PONV treatment ([5]; >40 kg): 4 mg
- treatment of PONV versus comparators ([5]; i.v. 4 mg, following gynecological laparoscopy (Polati)): better efficacy than intravenous metoclopramide 10 mg or placebo
- control of PONV by repeat dose ([5]; repeat i.v. 4 mg in PACU after failed prophylaxis with i.v. 4 mg (Kovac)): does not appear to offer additional control of PONV

SMILES: OCCN1CCN(CCCN2c3ccccc3Sc3ccc(Cl)cc32)CC1 [perphenazine]
- efficacy in preventing PONV versus comparator ([3]; children after tonsillectomy, prophylactic 70 μg/kg): more effective than dexamethasone 150 μg/kg; also recorded: equally as effective as ondansetron 150 μg/kg
- emesis after tonsillectomy ([3]; paediatric patients, prophylactic i.v. 70 μg/kg): decreased emesis
- Adverse Effect [1]: Sedation, EPS, hypotension,

SMILES: CC(CN1c2ccccc2Sc2ccccc21)N(C)C (centres unmarked) [promethazine]
- Adverse Effect [1]: Sedation, EPS, hypotension,

SMILES: CC(C)c1cccc(C(C)C)c1O [propofol]
- prevention of PONV by anesthetic used ([3]; 0.5 mg/kg i.v., outpatient laparoscopic cholecystectomy): more effective in preventing PONV after sevoflurane anesthesia than desflurane anesthesia
- plasma concentration necessary to obtain a 50% reduction in postoperative nausea ([3]; 10 mg i.v. bolus followed by infusion of 10 μg/kg/min): 343 ng/L
- overall occurrence of PONV versus 10% Intralipid ([3]; 20-hour postoperative 0.1 ml/kg/hour infusion): less
- prevention of PONV versus placebo [3]: more effective, with no haemodynamic changes, than placebo
- effect on PONV ([3]; i.v. bolus 0.1 mg/kg followed by constant infusion of 1 mg/kg/hour): no effect on PONV
- PONV prophylaxis versus thiopentone 1.0 mg/kg ([3]; i.v. subhypnotic 0.5 mg/kg, first 6 hours after middle ear surgery): significantly better PONV prophylaxis against retching and vomiting
- prevention of PONV versus ondansetron ([3]; intraoperative intravenous, first 6 hours postoperatively): equally as effective as intravenous ondansetron 4 mg

SMILES: CN1[C@@H]2C[C@@H](OC(=O)[C@H](CO)c3ccccc3)C[C@H]1[C@@H]1O[C@@H]12 [scopolamine, Scopolamine]
- Adverse Effect [1]: Sedation, dry mouth,

SMILES: CN1[C@@H]2CC[C@H]1C[C@@H](OC(=O)c1c[nH]c3ccccc13)C2 [tropisetron, Tropisetron]
- prevention of PONV ([3]; 5 mg i.v. before start of anesthesia, breast and gynaecological surgery): effective for prevention of PONV
- PONV prevention versus metoclopramide 10 mg or placebo ([3]; i.v. ondansetron 4 mg): significantly greater anti-emetic effectiveness than metoclopramide or placebo
- prevention of PONV symptoms [3]: effectively prevented vomiting, but not nausea and retching
- patients with response (single agent, first study): about 80%
- Adverse Effect [1]: Headache, dizziness
- optimal effective dose for treatment of PONV ([5]; intravenous, abdominal and non-abdominal surgeries (Alon)): 2 mg
